In patent EP0555116B1, “Compositions based on antiseptics and their applications” (HUTCHINSON, priority 1992, dated 1993):

Assays:
[1] = test system: Candida albicans ATCC 1031; assay: Growth inhibition test (DGHM, Essai 2, Tables A-C), 72 h at 37°C; non/A/B/C = without or with inactivating substances A, B, C; assay type: cell-based
Description: Un autre essai a été réalisé à partir des solutions suivantes : • 100 ml d'une solution à 0,1 % de digluconate de chlorhexidine (pH 6) et • 100 ml d'une solution à 0,1 % de Bardac 22®. […]
(§1) Les tests ont été réalisés conformément au protocole décrit dans le Chapitre I/2.1 et 2.2 de Richtlinien für die Prüfung und Bewertung chemischer Desinfektionsverfahren der DGHM, Stand 1.1., 1981).
Les Tableaux A, B et C illustrent respectivement l'activité bactéricide et fongicide d'une solution aqueuse à 0,1 % de digluconate de chlorhexidine, d'une solution aqueuse à 0,1 % de Bardac 22® et d'un mélange à part égale des deux composés. Les protocoles dont ces Tableaux illustrent les résultats comprennent une incubation de 72 heures à 37°C et l'utilisation, comme témoins, des substances inactivantes suivantes : A : Tween® 80 3 % + lécithine 0,3 % + cystéine 0,1 %; B : Tween® 80 3 % + saponine 3 % + cystéine 0,1 % + histidine 0,1 %; C : Tween® 80 3 % + lécithine 0,3 % + histidine 0,1 % + thiosulfate de sodium 0,5 %.
Dans ces Tableaux, le signe "+" indique une croissance et le signe "-" l'absence de croissance.

[2] = test system: S. aureus ATCC 6538; assay: Disinfection time test (Essai 2, Tables D-F), reaction at 22°, subcultures 72 h at 37°C; assay type: cell-based, Staphylococcus aureus
Description: (§2) Un autre essai a été réalisé à partir des solutions suivantes : • 100 ml d'une solution à 0,1 % de digluconate de chlorhexidine (pH 6) et • 100 ml d'une solution à 0,1 % de Bardac 22®.
as §1
(§3) Les tests dont les résultats sont illustrés aux Tableaux D, E et F ont été réalisés à une température de réaction de 22° avec une incubation des sous-cultures 72 heures à 37°C avec comme substances inactivantes : Tween® 80 3 % + saponine 3 % + cystéine 0,1 % + histidine 0,1 %; ces Tableaux illustrent respectivement l'activité bactéricide et fongicide d'une solution aqueuse à 0,1 % de digluconate de chlorhexidine, d'une solution aqueuse à 0,1 % de Bardac 22® et d'un mélange à part égale des deux composés et montrent l'action des antiseptiques précités, en fonction du temps de contact, et font apparaître la même synergie d'action de l'association que ci-dessus, dans la mesure où l'association des deux composés permet de diminuer significativement leur concentration, pour l'obtention d'un même effet. TABLEAU D

[3] = test system: E. coli ATCC 11229; assay: as above; assay type: cell-based, Escherichia coli
Description: as §2, §1, §3

CCCCCCCCCC[N+](C)(C)CCCCCCCCCC [Bardac®, chlorure de didécyldiméthylammonium]
croissance ([1]; Conc. 0,1 % (vol/vol), A): +
croissance ([1]; Conc. 0,1 % (vol/vol), B): +
croissance ([1]; Conc. 0,1 % (vol/vol), C): +
croissance ([1]; Conc. 0,1 % (vol/vol), non): -
croissance ([1]; Conc. 0,05 % (vol/vol), A): +
croissance ([1]; Conc. 0,5 % (vol/vol), A): +
croissance ([1]; Conc. 0,05 % (vol/vol), B): +
croissance ([1]; Conc. 0,5 % (vol/vol), B): +
croissance ([1]; Conc. 0,05 % (vol/vol), C): +
croissance ([1]; Conc. 0,5 % (vol/vol), C): +
croissance ([1]; Conc. 0,05 % (vol/vol), non): +
croissance ([1]; Conc. 0,5 % (vol/vol), non): -
croissance ([1]; Conc. 1,0 % (vol/vol), A): +
croissance ([1]; Conc. 1,0 % (vol/vol), B): +
croissance ([1]; Conc. 1,0 % (vol/vol), C): +
croissance ([1]; Conc. 1,0 % (vol/vol), non): -
croissance ([1]; Conc. 0,00625 % (vol/vol), A): +
croissance ([1]; Conc. 0,00625 % (vol/vol), B): +
croissance ([1]; Conc. 0,00625 % (vol/vol), C): +
croissance ([1]; Conc. 0,00625 % (vol/vol), non): +
croissance ([1]; Conc. 0,0125 % (vol/vol), A): +
croissance ([1]; Conc. 0,0125 % (vol/vol), B): +
croissance ([1]; Conc. 0,0125 % (vol/vol), C): +
croissance ([1]; Conc. 0,0125 % (vol/vol), non): +
croissance ([1]; Conc. 0,025 % (vol/vol), A): +
croissance ([1]; Conc. 0,025 % (vol/vol), B): +
croissance ([1]; Conc. 0,025 % (vol/vol), C): +
croissance ([1]; Conc. 0,025 % (vol/vol), non): +
concentration en substance active inhibant la croissance ([1]; antiseptique seul): 0,0001%
croissance ([2]; Conc. 0,1 % (vol/vol), 1 min): +
croissance ([2]; Conc. 0,1 % (vol/vol), 3 min): +
croissance ([2]; Conc. 0,1 % (vol/vol), 5 min): +
croissance ([2]; Conc. 0,1 % (vol/vol), 15 min): +
croissance ([2]; Conc. 0,1 % (vol/vol), 30 min): +
croissance ([2]; Conc. 0,1 % (vol/vol), 60 min): +
croissance ([2]; Conc. 0,05 % (vol/vol), 1 min): +
croissance ([2]; Conc. 0,5 % (vol/vol), 1 min): +
croissance ([2]; Conc. 0,05 % (vol/vol), 3 min): +
croissance ([2]; Conc. 0,5 % (vol/vol), 3 min): +
croissance ([2]; Conc. 0,05 % (vol/vol), 5 min): +
croissance ([2]; Conc. 0,5 % (vol/vol), 5 min): +
croissance ([2]; Conc. 0,05 % (vol/vol), 15 min): +
croissance ([2]; Conc. 0,5 % (vol/vol), 15 min): +
croissance ([2]; Conc. 0,05 % (vol/vol), 30 min): +
croissance ([2]; Conc. 0,5 % (vol/vol), 30 min): +
croissance ([2]; Conc. 0,05 % (vol/vol), 60 min): +
croissance ([2]; Conc. 0,5 % (vol/vol), 60 min): +
croissance ([2]; Conc. 1 % (vol/vol), 1 min): +
croissance ([2]; Conc. 1 % (vol/vol), 3 min): +
croissance ([2]; Conc. 1 % (vol/vol), 5 min): +
croissance ([2]; Conc. 1 % (vol/vol), 15 min): +
croissance ([2]; Conc. 1 % (vol/vol), 30 min): -
croissance ([2]; Conc. 1 % (vol/vol), 60 min): -
croissance ([2]; Conc. 5 % (vol/vol), 1 min): +
croissance ([2]; Conc. 5 % (vol/vol), 3 min): +
croissance ([2]; Conc. 5 % (vol/vol), 5 min): +
croissance ([2]; Conc. 5 % (vol/vol), 15 min): -
croissance ([2]; Conc. 5 % (vol/vol), 30 min): -
croissance ([2]; Conc. 5 % (vol/vol), 60 min): -
croissance ([2]; Conc. 10 % (vol/vol), 1 min): +
croissance ([2]; Conc. 10 % (vol/vol), 3 min): -
croissance ([2]; Conc. 10 % (vol/vol), 5 min): -
croissance ([2]; Conc. 10 % (vol/vol), 15 min): -
croissance ([2]; Conc. 10 % (vol/vol), 30 min): -
croissance ([2]; Conc. 10 % (vol/vol), 60 min): -
croissance ([2]; Conc. 25 % (vol/vol), 1 min): +
croissance ([2]; Conc. 25 % (vol/vol), 3 min): -
croissance ([2]; Conc. 25 % (vol/vol), 5 min): -
croissance ([2]; Conc. 25 % (vol/vol), 15 min): -
croissance ([2]; Conc. 25 % (vol/vol), 30 min): -
croissance ([2]; Conc. 25 % (vol/vol), 60 min): -
croissance ([3]; Conc. 0,1 % (vol/vol), 1 min): +
croissance ([3]; Conc. 0,1 % (vol/vol), 3 min): +
croissance ([3]; Conc. 0,1 % (vol/vol), 5 min): +
croissance ([3]; Conc. 0,1 % (vol/vol), 15 min): +
croissance ([3]; Conc. 0,1 % (vol/vol), 30 min): +
croissance ([3]; Conc. 0,1 % (vol/vol), 60 min): +
croissance ([3]; Conc. 0,05 % (vol/vol), 1 min): +
croissance ([3]; Conc. 0,5 % (vol/vol), 1 min): +
croissance ([3]; Conc. 0,05 % (vol/vol), 3 min): +
croissance ([3]; Conc. 0,5 % (vol/vol), 3 min): +
croissance ([3]; Conc. 0,05 % (vol/vol), 5 min): +
croissance ([3]; Conc. 0,5 % (vol/vol), 5 min): +
croissance ([3]; Conc. 0,05 % (vol/vol), 15 min): +
croissance ([3]; Conc. 0,5 % (vol/vol), 15 min): +
croissance ([3]; Conc. 0,05 % (vol/vol), 30 min): +
croissance ([3]; Conc. 0,5 % (vol/vol), 30 min): +
croissance ([3]; Conc. 0,05 % (vol/vol), 60 min): +
croissance ([3]; Conc. 0,5 % (vol/vol), 60 min): +
croissance ([3]; Conc. 1 % (vol/vol), 1 min): +
croissance ([3]; Conc. 1 % (vol/vol), 3 min): +
croissance ([3]; Conc. 1 % (vol/vol), 5 min): +
croissance ([3]; Conc. 1 % (vol/vol), 15 min): +
croissance ([3]; Conc. 1 % (vol/vol), 30 min): +
croissance ([3]; Conc. 1 % (vol/vol), 60 min): +
croissance ([3]; Conc. 5 % (vol/vol), 1 min): +
croissance ([3]; Conc. 5 % (vol/vol), 3 min): +
croissance ([3]; Conc. 5 % (vol/vol), 5 min): +
croissance ([3]; Conc. 5 % (vol/vol), 15 min): -
croissance ([3]; Conc. 5 % (vol/vol), 30 min): -
croissance ([3]; Conc. 5 % (vol/vol), 60 min): -
croissance ([3]; Conc. 10 % (vol/vol), 1 min): +
croissance ([3]; Conc. 10 % (vol/vol), 3 min): +
croissance ([3]; Conc. 10 % (vol/vol), 5 min): -
croissance ([3]; Conc. 10 % (vol/vol), 15 min): -
croissance ([3]; Conc. 10 % (vol/vol), 30 min): -
croissance ([3]; Conc. 10 % (vol/vol), 60 min): -
croissance ([3]; Conc. 25 % (vol/vol), 1 min): -
croissance ([3]; Conc. 25 % (vol/vol), 3 min): -
croissance ([3]; Conc. 25 % (vol/vol), 5 min): -
croissance ([3]; Conc. 25 % (vol/vol), 15 min): -
croissance ([3]; Conc. 25 % (vol/vol), 30 min): -
croissance ([3]; Conc. 25 % (vol/vol), 60 min): -
